Measurements as given in PubChem BioAssay (NCI).
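Cultured in 96-well plates, cells were exposed to test compound for 48 hours across five concentrations. GI50 = concentration required for 50% inhibition of growth. TGI is the concentration that stops growth completely.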

Key:
Assay in all cases: DTP human tumour cell line panel, 48 h
MALME-3M melanoma = system: MALME-3M melanoma
RXF 393 renal = system: RXF 393 renal
NCI/ADR-RES ovarian = system: NCI/ADR-RES ovarian
CAKI-1 renal = system: CAKI-1 renal
SNB-75 CNS = system: SNB-75 CNS
HS 578T breast = system: HS 578T breast
CCRF-CEM leukemia = system: CCRF-CEM leukemia
HL-60(TB) leukemia = system: HL-60(TB) leukemia
UACC-257 melanoma = system: UACC-257 melanoma
SF-295 CNS = system: SF-295 CNS

SMILES | GI50 (MALME-3M melanoma) [µM] | TGI (MALME-3M melanoma) [µM] | GI50 (RXF 393 renal) [µM] | TGI (RXF 393 renal) [µM] | GI50 (NCI/ADR-RES ovarian) [µM] | TGI (NCI/ADR-RES ovarian) [µM] | GI50 (CAKI-1 renal) [µM] | TGI (CAKI-1 renal) [µM] | GI50 (SNB-75 CNS) [µM] | TGI (SNB-75 CNS) [µM] | GI50 (HS 578T breast) [µM] | TGI (HS 578T breast) [µM] | GI50 (CCRF-CEM leukemia) [µM] | TGI (CCRF-CEM leukemia) [µM] | GI50 (HL-60(TB) leukemia) [µM] | TGI (HL-60(TB) leukemia) [µM] | GI50 (UACC-257 melanoma) [µM] | TGI (UACC-257 melanoma) [µM] | GI50 (SF-295 CNS) [µM] | TGI (SF-295 CNS) [µM]
C=C1CCC2C3(C)COC(c4c(OC)cccc4OC)OC3CCC2(C)C1C/C=C1/C(=O)OCC1O (stereo not given) | 8.92 | 27.7 | 1.92 | 3.55 | 2.65 | 7.03 | 1.57 | 3.48 | 2.55 | 14.5 | 2.71 | 10.9 | 1.86 | 5.75 | 1.54 | 4.9 | 13.5 | 31 | 5.28 | 18.1
N#Cc1ccsc1NC(=O)COC(=O)c1cccc(S(=O)(=O)N2CCc3ccccc32)c1 | 75.8 | > 100 | 31.3 | > 100 | 27.8 | > 100 | 42.4 | > 100 | 29.9 | > 100 | > 100 | > 100 | 14.5 | > 100 | 37.9 | > 100 | 28.9 | > 100 | 33.4 | > 100
CNc1cc2nc3cc(NC)c(C)cc3cc2cc1C | 2.7 | 19.8 | 1.09 | 2.37 | 1.69 | 9.28 | 2.88 | 17.1 | 3.75 | 19.4 | 1.62 | 7.6 | 1.08 | 33.3 | 2.58 | 15.9 | 6.83 | 32.3 | 1.41 | 13.2
O=C1C(Nc2ccc(Br)cc2)=C(I)C(=O)c2ncccc21 | 0.731 | 1.41 | 0.909 | 1.73 | 1.14 | 3.32 | 0.677 | 1.34 | 1.24 | 7 | 1.59 | 26 | 0.859 | 2.97 | 0.96 | 2.07 | 0.835 | 1.95 | 7.56 | 14.9
C[N+](C)(CCCCCC[N+](C)(C)CCCN1C(=O)c2cc3ccccc3cc2C1=O)CCCN1C(=O)c2cc3ccccc3cc2C1=O | > 37.5 | > 37.5 | > 37.5 | > 37.5 | > 37.5 | > 37.5 | > 37.5 | > 37.5 | > 37.5 | > 37.5 | > 37.5 | > 37.5 | > 37.5 | > 37.5 | > 37.5 | > 37.5 | > 37.5 | > 37.5 | > 37.5 | > 37.5
CCCC[n+]1c(/C=C\c2c(OC)cc(OC)cc2OC)ccc2ccccc21 | 0.362 | 2.07 | 1.59 | 5.87 | 15.9 | > 71.9 | 2.73 | 11.5 | 1.57 | 8.21 | 1.28 | 8.64 | 1.48 | 18.4 | 0.241 | 1.39 | 0.38 | 2.79 | 0.802 | 3.25
CC[C@@H](C(=O)[C@H](C)[C@H](O)[C@@H](C)[C@H]1O[C@H]([C@@H](CC)C(=O)O)CC[C@H]1C)C1O[C@]2(C=C[C@@H](O)[C@]3(CC[C@@](C)([C@H]4CC[C@](O)(CC)[C@H](C)O4)O3)O2)[C@H](C)C[C@@H]1C (stereo not given in full) | 0.241 | 1.35 | 0.0621 | 1.47 | 0.562 | > 68.2 | 0.637 | 13.9 | 0.777 | 4.63 | 0.239 | 18.4 | 0.283 | 12.3 | 0.06 | 0.506 | 0.23 | 6.98 | 0.474 | 5.54
